Consider one compound from the NIST ThermoML archive (doi:10.1016/j.tca.2018.05.017).

Molecules are shown by their SMILES. Numbers after ± are expanded uncertainties.

For the data set the following is noted: Crystal; DTA.

`CCCCCCCC[NH+](CCCCCCCC)CCCCCCCC.[Cl-]` [trioctylammonium chloride]: the Normal melting temperature came to 72.20 ± 5 °C.
